# Experimental data: patent US7655800B2, “Crystalline 1H-imidazo[4,5-b]pyridin-5-amine, 7-[5-[(cyclohexylmethylamino)-methyl]-1H-indol-2-yl]-2-methyl, sulfate (1:1), trihydrate and its pharmaceutical uses” (Eisai R & D Management Co., Ltd., priority 2005, dated 2010)
# Where a name gives a salt, the structure may show the parent alone.
# What was measured:
# Type in all cases: physicochemical
# [1] = Solubility in water of amorphous versus crystalline E6070; details: in words
# [2] = Physical stability of crystalline E6070 under stressed storage (XRD, TG-DTA)
# Experimental: Crystalline E6070 was placed on the sample platform of an X-ray powder diffractometer (RINT-2000, Rigaku, Japan) and analyzed under the conditions shown in Table 3.
# Thermal Analyses: Using a Rigaku Thermoflex TAS20 TG8101D (Rigaku, Tokyo, Japan) therogravimetric-differential thermal analyses (TG-DTA) were performed under the measurement conditions in Table 9. The temperature axis and the cell constant were calibrated with indium. The solid sample (1-5 mg) was accurately weighed into an open aluminum pan and then heated.
# The physical stability of crystalline E6070 was evaluated under the following two conditions: 60° C. for a month and 40° C./75% RH (open) for a month.
# [3] = Hygroscopicity measurements (controlled-atmosphere microbalance, adsorption/desorption isotherm); details: for hygroscopicity: general statement, in words
# Experimental: Hygroscopicity Measurements: Samples were exposed to various relative humidity (RH) conditions at 25° C. using an automated controlled-atmosphere microbalance, MB-300W (VTI Corporation, FL, USA). In this system, a sample was suspended in an isothermal chamber at 25° C., and the RH was regulated from 5% to 95% by adjusting the relative flow rates of dry (0% RH) and moist (100% RH) nitrogen. The weight of the sample was measured every 2 min with the microbalance. The weight stability criterion employed for the equilibrium was that the maximum weight change for each measurement was less than 0.2% (w/w).
# [4] = 40° C./75% RH (open) for a month
smiles,measurement,setting,value
"Cc1nc2nc(N)cc(-c3cc4cc(CN(C)C5CCCCC5)ccc4[nH]3)c2[nH]1 [crystalline E6070, 1H-imidazo[4,5-b]pyridin-5-amine, 7-[5-[(cyclohexylmethylamino)-methyl]-1H-indol-2-yl]-2-methyl, sulfate (1:1), trihydrate]",solubility in water,[1],much less soluble in water
same,TG-DTA thermogram after storage compared with initial,[2]; [4],same TG-DTA thermogram as the initial
same,change in XRD pattern after storage,[2]; [4],no change
same,TG-DTA thermogram after storage compared with initial,[2]; 60° C. for a month,same TG-DTA thermogram as the initial
same,change in XRD pattern after storage,[2]; 60° C. for a month,no change
same,physical stability in the solid state (conclusion),"[2]; both stressed conditions, one month",physically stable in the solid state
same,moisture uptake or loss on exposure to controlled humidities,[3]; from 0% to 93% RH at 25° C.,not found to take up or lose any moisture
same,hygroscopicity,"[3]; listed as Crystalline E6070, trihydrate",very low hygroscopicity
same,hygroscopicity,[3]; trihydrate,non-hygroscopic
